From EP0238060B1, “Cephalosporin derivatives, processes for their preparation and antibacterial agents” (Banyu Pharmaceutical Co., Ltd., priority 1986, dated 1987)
Converted amounts (≈) assume the structure as drawn. Where two headings read alike, the source gives them in different places.

Key:
[1] = tested on: Enterobacter cloacae GN 5797; assay: Induction of β-lactamase by β-lactam antibiotics; format: cell-based; details: induced β-lactamase activity of crude enzyme; Concentration 10 µg/ml; Incubation time 3 hr; Substrate: 100 µM of cephaloridine
Procedure: The assay method for induction of β-lactamase by β-latam antibiotics was as follows: The test organism, Enterobacter cloacae GN 5797, was grown overnight in Mueller Hinton broth (Dlfco Laboratories, Detroit, Mich.) at 37°C. The culture was diluted l0-fold into 20 ml of the flesh medium and incubated with shaking at 37°C. After 2 hours of incubation, antibiotics were added to final concentrations of 50 µg/ml, l0 µg/ml and l µg/ml, and the incubation was continued. At l hour intervals after the addition of antibiotic, 5 ml of sample was taken, and immediately added with 0.l ml of 50 mM sodium azide. The cells were harvested and washed with 50 mM phosphate buffer (pH 7.0). The cells were suspended in 5 ml of 50 mM phosphate buffer and disrupted with a sonicater in an ice-water bath. The broken cells were centrifuged at l6,500 G for 40 minutes at 4°C, and the resulting supernatant fluid was used as the crude enzyme. β-Lactamase activity was determined by a spectrophotometric method (Antmicrob. Agents Chemother. 17, 355-358, 1980) with cephaloridine as substrate. The concentration of protein was determined by the method of Lowry (J. Biol. Chem. 193, 265-275, 1951).

A.calcoaceticus No. 4 = assay: In vitro antibacterial activity, agar plate dilution method (MIC); format: cell-based; details: Acinetobacter calcoaceticus; A.calcoaceticus No. 4; Mueller Hinton agar, inoculum 10⁶ CFU/ml, 37°C, 16 hours; read-out: Minimum Inhibitory Concentration (MIC: µg/ml)
C.freundii GN346/16 = assay: as above; format: cell-based; details: Citrobacter freundii; C.freundii GN346/16; Mueller Hinton agar, inoculum 10⁶ CFU/ml, 37°C, 16 hours; read-out: Minimum Inhibitory Concentration (MIC: µg/ml)
C.freundii GN346 = assay: as above; format: cell-based; details: Citrobacter freundii; C.freundii GN346 (β-Lactamase-producing strain); Mueller Hinton agar, inoculum 10⁶ CFU/ml, 37°C, 16 hours; read-out: Minimum Inhibitory Concentration (MIC: µg/ml)
E.cloacae 963 = assay: as above; format: cell-based; details: Enterobacter cloacae; E.cloacae 963; Mueller Hinton agar, inoculum 10⁶ CFU/ml, 37°C, 16 hours; read-out: Minimum Inhibitory Concentration (MIC: µg/ml)
E.cloacae Nek 39 = assay: as above; format: cell-based; details: Enterobacter cloacae, NEK39; E.cloacae Nek 39 (β-Lactamase-producing strain); Mueller Hinton agar, inoculum 10⁶ CFU/ml, 37°C, 16 hours; read-out: Minimum Inhibitory Concentration (MIC: µg/ml)
E.coli CSH(RE45) = assay: as above; format: cell-based; details: Escherichia coli, 16 h, read-out: Minimum Inhibitory Concentration (MIC: µg/ml)
E.coli CSH2 (RK1) = assay: as above; format: cell-based; details: Escherichia coli, 16 h, read-out: Minimum Inhibitory Concentration (MIC: µg/ml)
E.coli GN5482 = assay: as above; format: cell-based; details: Escherichia coli; E.coli GN5482 (β-Lactamase-producing strain); Mueller Hinton agar, inoculum 10⁶ CFU/ml, 37°C, 16 hours; read-out: Minimum Inhibitory Concentration (MIC: µg/ml)
E.coli NIHJ JC2 = assay: as above; format: cell-based; details: Escherichia coli, NIHJJC2; E.coli NIHJ JC2; Mueller Hinton agar, inoculum 10⁶ CFU/ml, 37°C, 16 hours; read-out: Minimum Inhibitory Concentration (MIC: µg/ml)
K.oxytoca GN10650 = assay: as above; format: cell-based; details: Klebsiella oxytoca; K.oxytoca GN10650 (β-Lactamase-producing strain); Mueller Hinton agar, inoculum 10⁶ CFU/ml, 37°C, 16 hours; read-out: Minimum Inhibitory Concentration (MIC: µg/ml)
K.pneumoniae No. 42 = assay: as above; format: cell-based; details: Klebsiella pneumoniae, read-out: Minimum Inhibitory Concentration (MIC: µg/ml)
K.pneumoniae PCI-602 = assay: as above; format: cell-based; details: Klebsiella pneumoniae, PCI602; K.pneumoniae PCI-602; Mueller Hinton agar, inoculum 10⁶ CFU/ml, 37°C, 16 hours; read-out: Minimum Inhibitory Concentration (MIC: µg/ml)
M.luteus ATCC9341 = assay: as above; format: cell-based; details: Micrococcus luteus; M.luteus ATCC9341; Mueller Hinton agar, inoculum 10⁶ CFU/ml, 37°C, 16 hours; read-out: Minimum Inhibitory Concentration (MIC: µg/ml)
M.morganii GN5407 = assay: as above; format: cell-based; details: Morganella morganii; M.morganii GN5407 (β-Lactamase-producing strain); Mueller Hinton agar, inoculum 10⁶ CFU/ml, 37°C, 16 hours; read-out: Minimum Inhibitory Concentration (MIC: µg/ml)
P.vulgaris HX-19 = assay: as above; format: cell-based; details: Proteus vulgaris, HX19; P.vulgaris HX-19; Mueller Hinton agar, inoculum 10⁶ CFU/ml, 37°C, 16 hours; read-out: Minimum Inhibitory Concentration (MIC: µg/ml)
P.vulgaris No. 33 = assay: as above; format: cell-based; details: Proteus vulgaris; P.vulgaris No. 33 (β-Lactamase-producing strain); Mueller Hinton agar, inoculum 10⁶ CFU/ml, 37°C, 16 hours; read-out: Minimum Inhibitory Concentration (MIC: µg/ml)
Ps.aeruginosa AK 109 = assay: as above; format: cell-based; details: Pseudomonas aeruginosa, AK109; Ps.aeruginosa AK 109; Mueller Hinton agar, inoculum 10⁶ CFU/ml, 37°C, 16 hours; read-out: Minimum Inhibitory Concentration (MIC: µg/ml)
Ps.aeruginosa AKR17 = assay: as above; format: cell-based; details: Pseudomonas aeruginosa; Ps.aeruginosa AKR17; Mueller Hinton agar, inoculum 10⁶ CFU/ml, 37°C, 16 hours; read-out: Minimum Inhibitory Concentration (MIC: µg/ml)
Ps.aeruginosa IFO3445 = assay: as above; format: cell-based; details: Pseudomonas aeruginosa; Ps.aeruginosa IFO3445; Mueller Hinton agar, inoculum 10⁶ CFU/ml, 37°C, 16 hours; read-out: Minimum Inhibitory Concentration (MIC: µg/ml)
S.aureus 209P NIHJ-JC1 = assay: as above; format: cell-based; details: Staphylococcus aureus; S.aureus 209P NIHJ-JC1; Mueller Hinton agar, inoculum 10⁶ CFU/ml, 37°C, 16 hours; read-out: Minimum Inhibitory Concentration (MIC: µg/ml)
S.aureus BB5703 = assay: as above; format: cell-based; details: Staphylococcus aureus; S.aureus BB5703; Mueller Hinton agar, inoculum 10⁶ CFU/ml, 37°C, 16 hours; read-out: Minimum Inhibitory Concentration (MIC: µg/ml)
S.aureus JS1 = assay: as above; format: cell-based; details: Staphylococcus aureus; S.aureus JS1 (β-Lactamase-producing strain); Mueller Hinton agar, inoculum 10⁶ CFU/ml, 37°C, 16 hours; read-out: Minimum Inhibitory Concentration (MIC: µg/ml)
S.epidermidis IAM12012 = assay: as above; format: cell-based; details: Staphylococcus epidermidis; S.epidermidis IAM12012; Mueller Hinton agar, inoculum 10⁶ CFU/ml, 37°C, 16 hours; read-out: Minimum Inhibitory Concentration (MIC: µg/ml)
S.marcescens IAM 1184 = assay: as above; format: cell-based; details: Serratia marcescens, IAM1184; S.marcescens IAM 1184; Mueller Hinton agar, inoculum 10⁶ CFU/ml, 37°C, 16 hours; read-out: Minimum Inhibitory Concentration (MIC: µg/ml)
S.marcescens No. 16-2 = assay: as above; format: cell-based; details: Serratia marcescens, NO.162; S.marcescens No. 16-2 (β-Lactamase-producing strain); Mueller Hinton agar, inoculum 10⁶ CFU/ml, 37°C, 16 hours; read-out: Minimum Inhibitory Concentration (MIC: µg/ml)
Ps.cepacia 23 = assay: as above; format: cell-based, Pseudomonas cepacia; details: Burkholderia cepacia; Ps.cepacia 23; Mueller Hinton agar, inoculum 10⁶ CFU/ml, 37°C, 16 hours; read-out: Minimum Inhibitory Concentration (MIC: µg/ml)
Ps.maltophilia GN 12873 = assay: as above; format: cell-based, Pseudomonas maltophilia; details: Stenotrophomonas maltophilia, GN12873; Ps.maltophilia GN 12873 (β-Lactamase-producing strain); Mueller Hinton agar, inoculum 10⁶ CFU/ml, 37°C, 16 hours; read-out: Minimum Inhibitory Concentration (MIC: µg/ml)

CO[C@@]1(NC(=O)Cc2cccs2)C(=O)N2C(C(=O)O)=C(COC(N)=O)CS[C@@H]21 [Cefoxitin, reference compound]
Specific activity (unit/mg protein) [1]: 0.238 unit/mg protein

CO/N=C(\C(=O)NC1C(=O)N2C(C(=O)[O-])=C(C[n+]3ccc4cc(OC(C)=O)c(OC(C)=O)cc4c3)CSC12)c1csc(N)n1 (stereo not shown) [Ex. 8, 3-(6,7-diacetoxy-2-isoquinolino)methyl-7-[2-(2-aminothiazol-4-yl)-2-methoxyiminoacetamido]-3-cephem-4-carboxylate]
MIC (A.calcoaceticus No. 4): 0.2 µg/mL (≈ 0.312 µM) | MIC (C.freundii GN346/16): 0.78 µg/mL (≈ 1.22 µM) | MIC (C.freundii GN346): 50 µg/mL (≈ 78 µM) | MIC (E.cloacae 963): 0.025 µg/mL (≈ 0.039 µM) | MIC (E.cloacae Nek 39): 0.2 µg/mL (≈ 0.312 µM) | MIC (E.coli CSH(RE45)): 0.1 µg/mL (≈ 0.156 µM) | MIC (E.coli CSH2 (RK1)): 0.0125 µg/mL (≈ 0.0195 µM) | MIC (E.coli GN5482): 0.78 µg/mL (≈ 1.22 µM) | MIC (E.coli NIHJ JC2): 0.1 µg/mL (≈ 0.156 µM) | MIC (K.oxytoca GN10650): 0.2 µg/mL (≈ 0.312 µM) | MIC (K.pneumoniae No. 42; NO.42, 16 h): 0.0125 µg/mL (≈ 0.0195 µM) | MIC (K.pneumoniae PCI-602): < 0.006 µg/mL | MIC (M.luteus ATCC9341): 0.78 µg/mL (≈ 1.22 µM) | MIC (M.morganii GN5407): 0.05 µg/mL (≈ 0.078 µM) | MIC (P.vulgaris HX-19): 0.025 µg/mL (≈ 0.039 µM) | MIC (P.vulgaris No. 33): 0.1 µg/mL (≈ 0.156 µM) | MIC (Ps.aeruginosa AK 109): 0.78 µg/mL (≈ 1.22 µM) | MIC (Ps.aeruginosa AKR17): 100 µg/mL (≈ 156 µM) | MIC (Ps.aeruginosa IFO3445): 0.78 µg/mL (≈ 1.22 µM) | MIC (S.aureus 209P NIHJ-JC1): 6.25 µg/mL (≈ 9.76 µM) | MIC (S.aureus BB5703): 12.5 µg/mL (≈ 19.5 µM) | MIC (S.aureus JS1): 50 µg/mL (≈ 78 µM) | MIC (S.epidermidis IAM12012): 3.12 µg/mL (≈ 4.87 µM) | MIC (S.marcescens IAM 1184): 0.025 µg/mL (≈ 0.039 µM) | MIC (S.marcescens No. 16-2): 1.56 µg/mL (≈ 2.44 µM) | MIC (Ps.cepacia 23): 0.2 µg/mL (≈ 0.312 µM) | MIC (Ps.maltophilia GN 12873): > 100 µg/mL

CC(C)(ON=C(C(=O)NC1C(=O)N2C(C(=O)[O-])=C(C[n+]3ccc4ccccc4c3)CSC12)c1csc(N)n1)C(=O)O (stereo not drawn) [Reference Ex. 1, sodium 7-[2-(2-aminothiazol-4-yl)-2-(l-carboxylato-l-methylethoxyimino)acetamido]-3-(2-isoquinolinio)methyl-3-cephem-4-carboxylate, reference compound]
MIC (A.calcoaceticus No. 4): 25 µg/mL | MIC (C.freundii GN346/16): 0.2 µg/mL | MIC (C.freundii GN346): 50 µg/mL | MIC (E.cloacae 963): 0.2 µg/mL | MIC (E.cloacae Nek 39): 1.56 µg/mL | MIC (E.coli CSH(RE45)): 0.1 µg/mL | MIC (E.coli CSH2 (RK1)): 0.05 µg/mL | MIC (E.coli GN5482): 0.78 µg/mL | MIC (E.coli NIHJ JC2): 0.2 µg/mL | MIC (K.oxytoca GN10650): 0.2 µg/mL | MIC (K.pneumoniae No. 42; K.pneumoniae No. 42 (β-Lactamase-producing strain), Mueller Hinton agar, inoculum 10⁶ CFU/ml, 37°C, 16 hours): 0.39 µg/mL | MIC (K.pneumoniae PCI-602): 0.0125 µg/mL | MIC (M.luteus ATCC9341): 0.78 µg/mL | MIC (M.morganii GN5407): 0.05 µg/mL | MIC (P.vulgaris HX-19): 0.0125 µg/mL | MIC (P.vulgaris No. 33): 0.1 µg/mL | MIC (Ps.aeruginosa AK 109): 3.12 µg/mL | MIC (Ps.aeruginosa AKR17): 100 µg/mL | MIC (Ps.aeruginosa IFO3445): 3.12 µg/mL | MIC (S.aureus 209P NIHJ-JC1): 6.25 µg/mL | MIC (S.aureus BB5703): 25 µg/mL | MIC (S.aureus JS1): 50 µg/mL | MIC (S.epidermidis IAM12012): 1.56 µg/mL | MIC (S.marcescens IAM 1184): 0.05 µg/mL | MIC (S.marcescens No. 16-2): 1.56 µg/mL | MIC (Ps.cepacia 23): 6.25 µg/mL | MIC (Ps.maltophilia GN 12873): 12.5 µg/mL
